Measurements from patent publication US5037960A, “Inhibitor of protein synthesis, process for its isolation, its use and pharmaceutical compositions in which it is present” (priority 1986, dated 1991).

Test system: protein synthesis (subcellular fractions of rat liver)
Format: biochemical
Settings: compared with native trichokirin
Text: The in vitro protocol uses appropriately complemented subcellular fractions of rat liver capable of incorporating ^14 C-phenylalanine in the presence of an artificial messenger RNA: polyuridylic acid.
The procedure employed for preparing the subcellular fractions and measuring the incorporation of ^14 C-phenylalanine is an adaptation of the method described in BBA 312, 608-615 (1973), using both a microsomal fraction and a cytosol fraction of the rat hepatocytes. The sample containing the trichokirin is introduced in the form of a solution appropriately diluted in a 50 mM tris-HCl buffer, pH 7.6, containing 0.2% of 2-mercaptoethanol and 15 micrograms/ml of bovine serum albumin. The count data are used to calculate, relative to a reference medium without inhibitor, the percentage inhibition of the incorporation of ^14 C-phenylalanine for each reaction medium.
The values obtained together make it possible to determine the concentration of trichokirin (or IC50) which inhibits the incorporation of ^14 C-phenylalanine by 50% under the experimental conditions.

mercaptosuccinoyl-trichokirin [modified trichokirin]
effect of the modification on activity: does not cause a significant loss of activity
